Experimental data as given in patent US20240400579A1, “SPIROCYCLIC MODULATORS OF CHOLESTEROL BIOSYNTHESIS AND THEIR USE FOR PROMOTING REMYELINATION” (GENENTECH, INC., priority 2021, published 2024).
Where two headings read alike, the source gives them in different places.

Assays:
[1] = target: human emopamil binding protein and human 7-dehydrocholesterol reductase co-expressing cell membrane (Homo sapiens (Human), UniProt Q15125); assay: hEBP-DHCR7 radioligand filtration binding assay with [3H]-Compound 118A*; details: radioligand [3H]-Compound 118A*; HEK293 membrane co-expressing hEBP and DHCR7
Procedure, shortened: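 HEK293 membranes transiently co-expressing hEBP and hDHCR7 (10 μg/well) were incubated with [3H]-Compound 118A* (added at 25 nM) and compounds (8 doses, final 0.06–5000 nM, n=2) for 3 h at 22 °C. Bound radioactivity was read after PEI-treated GF/B filtration. IC50 came from a Hill fit of % inhibition and was converted to Ki.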

[2] = target: human EBP (Homo sapiens (Human), UniProt Q15125); assay: Competition binding assay (SPA) to determine compound affinity to EBP; details: read-out: hEBP SPA Ki
Method: Membrane preparation: To examine compound binding affinity to EBP, human EBP was overexpressed in human embryonic kidney 293 cells. Cell pellet was lysed in 10 times weight binding buffer (50 mM Tris, 5 mM MgCl2, 0.1 mM EDTA, 1× protease inhibitor cocktail, pH 7.5) on ice by using a dounce homogenizer. The solution was centrifuged at 25,000 g for 50 min at 4° C. The membrane pellet was re-suspended in binding buffer and run through a 25 5/8 gauge needle. After checking the concentration by Bradford assay, the whole cell membrane solution was adjusted to 20 mg/mL and stored at −80° C.
This binding solution was centrifuged at 400 g for 5 minutes to collect the bead/membrane mixture. After re-suspending the pellet in binding buffer at the same calculated volume with 0.01% BSA (Sigma A1933), the bead/membrane mixture was added in 384-well low-binding surface plate (PerkinElmer Cat #6057480) at 25 i/well. Radioligand at different concentrations with and without the non-radio-labeled same ligand 5 uM (for nonspecific and total signal, respectively) was added to bring final volume to 50 i/well with DMSO concentration at 0.1%. At equilibrium (3 hours after ligand addition), radiometric signal CPM was counted by using a Microbeta2 microplate counter (Perkinelmer).
Competition binding assay to determine compound affinity: The same conditions of the radioligand Kd study were used for compound single dose percentage inhibition and equilibrium dissociation constant Ki examinations, except 50 nL compound DMSO stock was pre-added in 384-well low-binding surface plate (PerkinElmer Cat #6057480) by Echo 550 (Labcyte) to reach the final concentration for single dose test at 1 uM, and dose response test from 0.06 nM to 5 uM (8 dose, 5 times dilution). A pre-incubated bead/membrane mixture was added in compound plate at 0.3 mg beads and […] membrane per well. […] At equilibrium (3 hours after ligand addition), radiometric signal was counted as described above. The percentage inhibition of compound at each testing concentration was calculated by normalizing each condition's CPM readout to full block (5 uM non-radiolabeled ligand) and non-block (DMSO) control conditions. Compound binding inhibition IC50 was determined by nonlinear regression fitting of percentage inhibition plot against compound concentration. Compound Ki was calculated from the equation Ki=IC50/(1+[L]/Kd), which [L] was radioligand concentration used in assay. All tests had N bigger or equal to 2.

[3] = radioligand [3H]-Ifenprodil 10 nM, Ki=IC50/(1+[L]/Kd), HEK293 membrane

Sequence of human EBP (Q15125 whole entry): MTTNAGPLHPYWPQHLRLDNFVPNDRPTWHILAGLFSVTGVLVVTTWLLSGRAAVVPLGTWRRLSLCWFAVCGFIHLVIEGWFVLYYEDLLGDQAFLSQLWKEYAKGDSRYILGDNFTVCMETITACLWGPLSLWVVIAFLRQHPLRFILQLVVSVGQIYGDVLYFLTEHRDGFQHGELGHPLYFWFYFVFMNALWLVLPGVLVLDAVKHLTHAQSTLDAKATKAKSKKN
Sequence of human emopamil binding protein and human 7-dehydrocholesterol reductase co-expressing cell membrane (Q15125 whole entry): as above

| Ki [1] [nM] | Ki [2, 3] [nM] | Ki [2] [nM] | SMILES |
| --- | --- | --- | --- |
| 136 | 25 | – | C[C@H](Cc1cnc(C(F)(F)F)nc1)CN1CCC2(CC1)CS(=O)(=O)C2 (single isomer, unassigned) [215B*] |
| 5.04 | 16 | – | CC(C)(CN1CCC2(CC1)CS(=O)(=O)C2)Oc1ccc(C(F)(F)F)cc1 [Example 138, 7-(2-Methyl-2-(4-(trifluoromethyl)phenoxy)propyl)-2-thia-7-azaspiro[3.5]nonane 2,2-dioxide] |
| 13.7 | 18 | – | O=S1(=O)CC2(CCN(CC[C@H](F)c3ccc(C(F)(F)F)cc3)C2)C1 (single isomer, unassigned) [Compound 122B] |
| 118 | 31 | – | CC(C)(CN1CCC2(C1)CS(=O)(=O)C2)Oc1cccc(OC(F)(F)F)c1 [Example 131, 6-(2-Methyl-2-(3-(trifluoromethoxy)phenoxy)propyl)-2-thia-6-azaspiro[3.4]octane 2,2-dioxide] |
| 28.6 | 32 | – | CC(C)(Cc1ccc(C(F)(F)F)nc1)CN1CC[C@@]2(CCS(=O)(=O)C2)C1 (single isomer, unassigned) [Compound 148B] |
| 13.2 | 16 | – | CC(C)(CN1CCC2(C1)CS(=O)(=O)C2)Oc1cccc(C(F)(F)F)c1 [Example 130, 6-(2-Methyl-2-(3-(trifluoromethyl)phenoxy)propyl)-2-thia-6-azaspiro[3.4]octane-2,2-dioxide] |
| 12.5 | 32 | – | CC(Cc1ccc(C2CCC2)cc1)CN1CCC2(C1)CS(=O)(=O)C2 (racemic) [Compound 109A, 6-(3-(4-cyclobutylphenyl)-2-methylpropyl)-2-thia-6-azaspiro[3.4]octane 2,2-dioxide] |
| 10.3 | 23 | – | CCC(C)(C)c1ccc(CC(C)CN2CCC3(C2)CS(=O)(=O)C3)cc1 (racemic) [Compound 107, 6-(2-Methyl-3-(4-(tert-pentyl)phenyl)propyl)-2-thia-6-azaspiro[3.4]octane 2,2-dioxide] |
| 13.5 | 28 | – | O=S1(=O)CC2(CCN(CCOc3ccc(C(F)(F)F)cc3)C2)C1 [Compound 112, 6-(2-(4-(Trifluoromethyl)phenoxy)ethyl)-2-thia-6-azaspiro[3.4]octane-2,2-dioxide] |
| 105 | 21 | – | C[C@@H](Cc1cnc(C(F)(F)F)nc1)CN1CCC2(CC1)CS(=O)(=O)C2 (single isomer, unassigned) [215A*] |
| 12.6 | 27 | – | COC(Cc1ccc(C(F)(F)F)cc1)CN1CCC2(C1)CS(=O)(=O)C2 (racemic) [Example 143, (S)-6-(2-Methoxy-3-(4-(trifluoromethyl)phenyl)propyl)-2-thia-6-azaspiro[3.4]octane 2,2-dioxide and (R)-6-(2-methoxy-3-(4-(trifluoromethyl)phenyl)propyl)-2-thia-6-azaspiro[3.4]octane 2,2-dioxide] |
| 17.2 | 25 | – | O=S1(=O)CC2(CCN(CC3(Cc4ccc(C(F)(F)F)nc4)CC3)C2)C1 [Example 157, 6-((1-((6-(Trifluoromethyl)pyridin-3-yl)methyl)cyclopropyl)methyl)-2-thia-6-azaspiro[3.4]octane 2,2-dioxide] |
| 9.23 | 30 | – | CC(C)(Cc1ccc(C2CCC(F)(F)CC2)c(Cl)c1)CN1CCC2(C1)CS(=O)(=O)C2 [Example 139, 6-(3-(3-Chloro-4-(4,4-difluorocyclohexyl)phenyl)-2,2-dimethylpropyl)-2-thia-6-azaspiro[3.4]octane 2,2-dioxide] |
| 25.6 | 44 | – | CC(C)(CN1CC[C@@]2(CCS(=O)(=O)C2)C1)Oc1ccc(C(F)(F)F)cc1 (single isomer, unassigned) [Compound 141A] |
| 25.7 | 13 | – | O=S1(=O)CCC2(CC1)CN(CCOc1ccc(C(F)(F)F)cc1)C2 [Example 201, 2-(2-(4-(Trifluoromethyl)phenoxy)ethyl)-7-thia-2-azaspiro[3.5]nonane 7,7-dioxide] |
| 58.4 | 61 | – | CC(C)(CN1CC[C@]2(CCS(=O)(=O)C2)C1)Oc1ccc(C(F)(F)F)cc1 (single isomer, unassigned) [Compound 141B] |
| 749 | 22 | – | O=S1(=O)CC2(CCN(CCOc3ccc(C(F)(F)F)nc3)CC2)C1 [Compound 230, 7-(2-((6-(Trifluoromethyl)pyridin-3-yl)oxy)ethyl)-2-thia-7-azaspiro[3.5]nonane 2,2-dioxide] |
| 29.6 | 56 | – | C[C@@H](Cc1ccc(C(F)F)cc1)CN1CCC2(C1)CS(=O)(=O)C2 (single isomer, unassigned) [Compound 128A] |
| 25.5 | – | 10 | C[C@@H](CN1CCC2(CC1)CS(=O)(=O)C2)Oc1ccc(F)c(F)c1 (single isomer, unassigned) [221A*] |
| 39.6 | 29 | – | CC(C)(CN1CCC2(C1)CS(=O)(=O)C2)Oc1ccc(C(F)(F)F)nc1 [Example 135, 6-(2-Methyl-2-((6-(trifluoromethyl)pyridin-3-yl)oxy)propyl)-2-thia-6-azaspiro[3.4]octane-2,2-dioxide] |
| 18.3 | 35 | – | C[C@@H](Cc1ccc(C(F)(F)F)cc1)CN1CCC2(C1)CS(=O)(=O)C2 (single isomer, unassigned) [114A*] |
| 96.6 | 53 | – | CC(C)(CN1CCC2(C1)CS(=O)(=O)C2)Oc1cnc(C(F)(F)F)nc1 [Example 144, 6-(2-Methyl-2-((2-(trifluoromethyl)pyrimidin-5-yl)oxy)propyl)-2-thia-6-azaspiro[3.4]octane-2,2-dioxide] |
| 19.9 | 18 | – | CC(C)(Cc1ccc(C(F)(F)F)nc1)CN1CCC2(C1)CS(=O)(=O)C2 [Example 140, 6-(2,2-Dimethyl-3-(6-(trifluoromethyl)pyridin-3-yl)propyl)-2-thia-6-azaspiro[3.4]octane-2,2-dioxide] |
| 11.8 | 21 | – | CC(C)(CN1CCC2(C1)CS(=O)(=O)C2)Oc1ccc(C2CCC2)cc1 [Example 129, 6-(2-(4-Cyclobutylphenoxy)-2-methylpropyl)-2-thia-6-azaspiro[3.4]octane-2,2-dioxide] |
| 5.85 | 34 | – | C[C@H](Cc1ccc(C(F)(F)F)cc1)CN1CCC2(C1)CS(=O)(=O)C2 (single isomer, unassigned) [114B*] |
| 14.2 | 29 | – | CC(C)(CN1CCC2(C1)CS(=O)(=O)C2)Oc1ccc(OC(F)(F)F)cc1 [Example 136, 6-(2-Methyl-2-(4-(trifluoromethoxy)phenoxy)propyl)-2-thia-6-azaspiro[3.4]octane 2,2-dioxide] |

| SMILES | Ki [1] [nM] | Ki [2, 3] [nM] | Ki [2] [nM] |
| --- | --- | --- | --- |
| C[C@@H](Cc1ccnc(C(F)(F)F)c1)CN1CCC2(C1)CS(=O)(=O)C2 (single isomer, unassigned) [Compound 126A] | 47.4 | 30 | – |
| C[C@H](Cc1ccnc(C(F)(F)F)c1)CN1CCC2(C1)CS(=O)(=O)C2 (single isomer, unassigned) [Compound 126B] | 67.6 | 120 | – |
| C[C@@H](Cc1cnc(C(F)(F)F)nc1)CN1CCC2(C1)CS(=O)(=O)C2 (single isomer, unassigned) [Compound 145A] | 69.1 | 56 | – |
| C[C@@H](Cc1ccc(C(F)(F)F)nc1)CN1CCC2(C1)CS(=O)(=O)C2 (single isomer, unassigned) [118A*] | 22.1 | 26 | – |
